Measurements from patent publication US12606561B2, “Substituted pyrazolo[1,5-a][1,3,5]triazines as CDK inhibitors” (QURIENT CO., LTD., priority 2018, dated 2026).
Read-outs that look alike come from different tables or passages of the source.

Columns and labels:
Assay in all cases: In vitro IC50 profile for CDKs family kinase (33PanQinase Activity Assay, ProQinase)
Type in all cases: biochemical
[1] = target: T1, 28 CDKs family protein kinases (Homo sapiens, UniProt P06493); conditions: read-out: CDK7 selectivity profile in CDKs family, IC50
T1 construct: purchased ProQinase GmbH; host or cells: Sf9 insect cells or E. coli
Experimental: (§1) The IC50 profile of compound 11 was determined using 28 CDKs family protein kinases through ProQinase GmbH (Freiburg, Germany). All the protocol and materials had been provided by ProQinase GmbH. Briefly, in the process, 90 μl H2O were added to each well of a compound dilution plate. To minimize potential precipitation, the H2O was added to the plate only a few minutes before the transfer of the compound solutions into the assay plates. The plate was shaken thoroughly, resulting in a “compound dilution plate/10% DMSO”. The compound dilution plate(s) were discarded at the end of the working day. For the assays (see below), 5 μl solution from each well of the compound dilution plate were transferred into the assay plates. The final volume of the assay was 50 μl. All compounds were tested at 10 final assay concentrations in the range from 1×10^−05 M to 3×10^−10 M. The final DMSO concentration in the reaction cocktails was 1% in all cases. All protein kinases provided by ProQinase were expressed in Sf9 insect cells or in E. coli as recombinant GST-fusion proteins or His-tagged proteins, either as full-length or enzymatically active fragments. All kinases were produced from human cDNAs and purified by either GSH affinity chromatography or immobilized metal affinity chromatography. The purity of the protein kinases was examined by SDS-PAGE/Coomassie staining, the identity was checked by mass spectroscopy. Kinases from external vendors, Carna Biosciences Inc.; Invitrogen Corp.; and Millipore Corp., were expressed, purified and quality-controlled by virtue of the vendors readings. A radiometric protein kinase assay (33PanQinase® Activity Assay) was used for measuring the kinase activity of the 28 protein kinases. All kinase assays were performed in 96-well FlashPlates™ from PerkinElmer (Boston, MA, USA) in a 50 μl reaction volume. The reaction cocktails were incubated at 30° C. for 60 minutes. The reaction was stopped with 50 μl of 2% (v/v) H3PO4, plates were aspirated and washed two times with 200 μl 0.9% (w/v) NaCl. Incorporation of ^33Pi was determined with a microplate scintillation counter (Microbeta, Wallac). All assays were performed with a BeckmanCoulter/SAGIAN™ Core System. As part of the data evaluation the low control value from a particular plate was subtracted from the high control value as well as from all 80 “compound values” of the corresponding plate. The residual activity (in %) for each well of a particular plate was calculated by using the following formula: Res. Activity (%)=100×[(cpm of compound−low control)/(high control−low control)].

[2] = target: T2, 28 CDKs family protein kinases (Homo sapiens, UniProt P11802); conditions: read-out: CDK7 selectivity profile in CDKs family, IC50
T2 construct: purchased ProQinase GmbH; host or cells: Sf9 insect cells or E. coli
Experimental: as §1

[3] = target: T3, 28 CDKs family protein kinases (Homo sapiens, UniProt P24941); conditions: read-out: CDK7 selectivity profile in CDKs family, IC50
T3 construct: purchased ProQinase GmbH; host or cells: Sf9 insect cells or E. coli
Experimental: as §1

[4] = target: T4, 28 CDKs family protein kinases (Homo sapiens, UniProt P49336); conditions: CDK8/CycC; read-out: CDK7 selectivity profile in CDKs family, IC50
T4 construct: purchased ProQinase GmbH; host or cells: Sf9 insect cells or E. coli
Experimental: as §1

[5] = target: T5, 28 CDKs family protein kinases (Homo sapiens, UniProt P50750); conditions: read-out: CDK7 selectivity profile in CDKs family, IC50
T5 construct: purchased ProQinase GmbH; host or cells: Sf9 insect cells or E. coli
Experimental: as §1

[6] = target: T6, 28 CDKs family protein kinases (Homo sapiens, UniProt Q00526); conditions: read-out: CDK7 selectivity profile in CDKs family, IC50
T6 construct: purchased ProQinase GmbH; host or cells: Sf9 insect cells or E. coli
Experimental: as §1

[7] = target: T7, 28 CDKs family protein kinases (Homo sapiens, UniProt Q00534); conditions: read-out: CDK7 selectivity profile in CDKs family, IC50
T7 construct: purchased ProQinase GmbH; host or cells: Sf9 insect cells or E. coli
Experimental: as §1

[8] = target: T8, 28 CDKs family protein kinases (Homo sapiens, UniProt Q00537); conditions: CDK17/p35NCK; read-out: CDK7 selectivity profile in CDKs family, IC50
T8 construct: purchased ProQinase GmbH; host or cells: Sf9 insect cells or E. coli
Experimental: as §1

[9] = target: T9, 28 CDKs family protein kinases (Homo sapiens, UniProt Q14004)
T9 construct: purchased ProQinase GmbH; host or cells: Sf9 insect cells or E. coli
Experimental: as §1

[10] = target: T10, 28 CDKs family protein kinases (Homo sapiens, UniProt Q8IZL9); conditions: read-out: CDK7 selectivity profile in CDKs family, IC50
T10 construct: purchased ProQinase GmbH; host or cells: Sf9 insect cells or E. coli
Experimental: as §1

[11] = target: T11, 28 CDKs family protein kinases (Homo sapiens, UniProt Q9BWU1); conditions: CDK19/CycC; read-out: CDK7 selectivity profile in CDKs family, IC50
T11 construct: purchased ProQinase GmbH; host or cells: Sf9 insect cells or E. coli
Experimental: as §1

[12] = target: T12, 28 CDKs family protein kinases (Homo sapiens, UniProt Q9NYV4); conditions: CDK12wt/CycK; read-out: CDK7 selectivity profile in CDKs family, IC50
T12 construct: purchased ProQinase GmbH; host or cells: Sf9 insect cells or E. coli
Experimental: as §1

Measured: IC50

T1 sequence (P06493 whole entry): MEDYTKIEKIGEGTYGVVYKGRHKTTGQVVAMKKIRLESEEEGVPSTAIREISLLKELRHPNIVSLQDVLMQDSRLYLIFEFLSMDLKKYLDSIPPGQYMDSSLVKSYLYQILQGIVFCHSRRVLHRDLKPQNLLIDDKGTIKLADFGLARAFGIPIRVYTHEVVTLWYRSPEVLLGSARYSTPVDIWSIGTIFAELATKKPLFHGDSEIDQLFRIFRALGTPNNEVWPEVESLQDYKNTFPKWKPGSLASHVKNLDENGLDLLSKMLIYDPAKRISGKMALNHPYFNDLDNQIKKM
T1 sequence (P14635 whole entry partner): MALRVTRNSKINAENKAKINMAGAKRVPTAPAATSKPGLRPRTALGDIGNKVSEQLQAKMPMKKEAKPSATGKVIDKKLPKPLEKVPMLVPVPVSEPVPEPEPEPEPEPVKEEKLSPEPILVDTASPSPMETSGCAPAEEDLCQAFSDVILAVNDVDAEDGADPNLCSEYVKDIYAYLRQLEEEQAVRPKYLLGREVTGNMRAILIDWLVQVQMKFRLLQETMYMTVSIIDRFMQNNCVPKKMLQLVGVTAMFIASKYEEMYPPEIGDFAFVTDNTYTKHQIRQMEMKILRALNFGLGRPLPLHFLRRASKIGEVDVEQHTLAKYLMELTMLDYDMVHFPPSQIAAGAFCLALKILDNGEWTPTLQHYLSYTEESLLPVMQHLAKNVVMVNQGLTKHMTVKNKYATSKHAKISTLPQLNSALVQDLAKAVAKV
T11 sequence (Q9BWU1 whole entry): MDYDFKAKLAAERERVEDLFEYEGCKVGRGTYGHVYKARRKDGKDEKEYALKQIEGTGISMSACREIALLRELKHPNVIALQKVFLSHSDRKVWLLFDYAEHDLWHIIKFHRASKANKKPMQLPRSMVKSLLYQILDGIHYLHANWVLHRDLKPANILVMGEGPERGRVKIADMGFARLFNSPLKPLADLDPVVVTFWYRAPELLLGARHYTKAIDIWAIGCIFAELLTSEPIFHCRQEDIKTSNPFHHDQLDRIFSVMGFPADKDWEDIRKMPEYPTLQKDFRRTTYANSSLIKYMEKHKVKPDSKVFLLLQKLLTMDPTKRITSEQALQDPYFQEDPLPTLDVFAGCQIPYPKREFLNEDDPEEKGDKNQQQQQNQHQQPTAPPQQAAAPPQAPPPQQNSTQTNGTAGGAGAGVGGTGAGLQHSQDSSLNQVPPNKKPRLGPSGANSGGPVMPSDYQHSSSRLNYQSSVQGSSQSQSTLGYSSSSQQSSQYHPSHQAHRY
T11 sequence (P24863 whole entry partner): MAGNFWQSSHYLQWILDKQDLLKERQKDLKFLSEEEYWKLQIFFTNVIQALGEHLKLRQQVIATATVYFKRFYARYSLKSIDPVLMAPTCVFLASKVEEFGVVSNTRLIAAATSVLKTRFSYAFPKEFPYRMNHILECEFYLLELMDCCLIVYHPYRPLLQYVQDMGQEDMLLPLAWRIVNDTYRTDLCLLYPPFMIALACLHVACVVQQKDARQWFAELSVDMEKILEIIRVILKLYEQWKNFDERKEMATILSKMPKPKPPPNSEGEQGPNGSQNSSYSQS
T4 sequence (P49336 whole entry): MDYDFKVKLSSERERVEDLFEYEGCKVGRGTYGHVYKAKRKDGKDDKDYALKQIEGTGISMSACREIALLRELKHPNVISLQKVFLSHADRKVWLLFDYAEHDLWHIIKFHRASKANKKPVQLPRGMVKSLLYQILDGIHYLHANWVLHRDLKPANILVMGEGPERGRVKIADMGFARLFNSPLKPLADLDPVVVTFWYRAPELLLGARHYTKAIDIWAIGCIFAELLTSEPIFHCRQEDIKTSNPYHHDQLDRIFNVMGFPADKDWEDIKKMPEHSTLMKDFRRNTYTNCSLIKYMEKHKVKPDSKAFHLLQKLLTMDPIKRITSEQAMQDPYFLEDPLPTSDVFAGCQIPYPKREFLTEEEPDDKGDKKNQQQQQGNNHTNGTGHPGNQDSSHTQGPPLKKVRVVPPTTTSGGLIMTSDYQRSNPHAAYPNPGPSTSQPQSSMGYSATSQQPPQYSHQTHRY
T4 sequence (P24863 whole entry partner): as the sequence (P24863 whole entry partner) above
T6 sequence (Q00526 whole entry): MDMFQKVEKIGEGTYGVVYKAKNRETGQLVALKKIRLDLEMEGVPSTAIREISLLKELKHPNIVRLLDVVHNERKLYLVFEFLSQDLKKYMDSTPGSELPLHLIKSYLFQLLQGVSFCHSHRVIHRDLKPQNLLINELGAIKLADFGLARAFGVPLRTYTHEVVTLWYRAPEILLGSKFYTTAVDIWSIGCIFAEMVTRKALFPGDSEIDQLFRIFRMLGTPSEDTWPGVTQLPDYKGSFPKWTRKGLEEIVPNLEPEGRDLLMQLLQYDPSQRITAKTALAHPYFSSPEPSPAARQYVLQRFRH
T6 sequence (P24863 whole entry partner): as the sequence (P24863 whole entry partner) above
T12 sequence (Q9NYV4 whole entry): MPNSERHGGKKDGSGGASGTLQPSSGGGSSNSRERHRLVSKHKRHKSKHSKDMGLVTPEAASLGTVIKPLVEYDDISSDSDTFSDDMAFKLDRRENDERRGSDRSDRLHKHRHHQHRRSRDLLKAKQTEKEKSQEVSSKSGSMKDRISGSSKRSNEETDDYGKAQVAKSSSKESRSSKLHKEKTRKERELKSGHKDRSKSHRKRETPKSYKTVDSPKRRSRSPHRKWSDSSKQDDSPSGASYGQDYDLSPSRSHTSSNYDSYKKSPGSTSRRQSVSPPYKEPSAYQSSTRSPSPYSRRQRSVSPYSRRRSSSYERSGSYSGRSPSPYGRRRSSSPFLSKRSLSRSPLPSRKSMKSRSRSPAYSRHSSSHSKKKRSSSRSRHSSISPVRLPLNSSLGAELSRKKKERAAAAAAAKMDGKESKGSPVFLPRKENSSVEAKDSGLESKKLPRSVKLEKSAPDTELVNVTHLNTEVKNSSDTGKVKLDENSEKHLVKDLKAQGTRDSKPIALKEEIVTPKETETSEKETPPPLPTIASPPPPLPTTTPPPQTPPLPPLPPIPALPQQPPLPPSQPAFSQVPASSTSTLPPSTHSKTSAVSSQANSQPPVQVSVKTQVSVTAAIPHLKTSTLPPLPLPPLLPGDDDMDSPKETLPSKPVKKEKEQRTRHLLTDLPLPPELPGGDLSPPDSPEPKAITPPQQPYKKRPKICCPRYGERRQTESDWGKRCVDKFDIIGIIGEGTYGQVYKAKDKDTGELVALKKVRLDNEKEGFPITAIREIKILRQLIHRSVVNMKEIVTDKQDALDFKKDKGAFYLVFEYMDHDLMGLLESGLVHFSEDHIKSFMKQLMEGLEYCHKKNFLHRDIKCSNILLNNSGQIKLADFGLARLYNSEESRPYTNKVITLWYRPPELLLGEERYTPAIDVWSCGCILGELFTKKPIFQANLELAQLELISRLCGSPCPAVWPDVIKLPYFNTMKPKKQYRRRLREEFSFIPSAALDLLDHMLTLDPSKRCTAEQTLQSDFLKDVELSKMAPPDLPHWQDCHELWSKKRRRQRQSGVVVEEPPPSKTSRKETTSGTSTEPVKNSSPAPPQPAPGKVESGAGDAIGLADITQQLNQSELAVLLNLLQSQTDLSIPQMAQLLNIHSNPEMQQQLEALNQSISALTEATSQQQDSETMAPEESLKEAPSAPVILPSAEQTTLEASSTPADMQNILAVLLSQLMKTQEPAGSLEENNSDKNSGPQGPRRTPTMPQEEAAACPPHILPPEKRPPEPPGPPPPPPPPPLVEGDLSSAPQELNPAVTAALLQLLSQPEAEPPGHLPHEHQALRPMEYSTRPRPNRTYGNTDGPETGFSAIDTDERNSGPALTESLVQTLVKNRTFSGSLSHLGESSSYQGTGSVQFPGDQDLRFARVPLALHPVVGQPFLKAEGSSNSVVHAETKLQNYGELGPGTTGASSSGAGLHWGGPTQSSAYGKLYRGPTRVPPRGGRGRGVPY
T12 sequence (O75909 whole entry partner): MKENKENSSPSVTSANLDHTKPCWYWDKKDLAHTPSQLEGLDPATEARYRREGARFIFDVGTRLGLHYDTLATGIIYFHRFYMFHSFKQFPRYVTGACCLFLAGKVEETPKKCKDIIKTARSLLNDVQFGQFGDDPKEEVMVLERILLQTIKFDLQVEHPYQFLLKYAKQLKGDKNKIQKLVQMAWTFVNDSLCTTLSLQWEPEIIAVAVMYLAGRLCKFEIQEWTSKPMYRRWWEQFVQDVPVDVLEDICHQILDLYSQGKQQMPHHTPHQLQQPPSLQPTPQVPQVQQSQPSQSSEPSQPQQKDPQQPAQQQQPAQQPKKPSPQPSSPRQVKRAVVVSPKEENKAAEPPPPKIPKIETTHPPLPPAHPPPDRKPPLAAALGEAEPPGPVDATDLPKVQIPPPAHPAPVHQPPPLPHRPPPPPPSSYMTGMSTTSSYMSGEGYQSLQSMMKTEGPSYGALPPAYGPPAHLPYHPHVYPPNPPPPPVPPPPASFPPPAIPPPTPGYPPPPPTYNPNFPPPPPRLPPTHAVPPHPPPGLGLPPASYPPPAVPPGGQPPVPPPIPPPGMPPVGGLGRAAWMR

CC(C)c1cnn2c(NCc3ccccc3-c3nccc4cc(NC(=O)/C=C/CN(C)C)ccc34)nc(N3CCC(N)CC3)nc12 [Compound 11]
> 10 µM: [1]; CDK1/CycA2 | [1]; CDK1/CycB1 | [1]; CDK1/CycE1 | [2]; CDK4/CycD1 | [2]; CDK4/CycD2 | [2]; CDK4/CycD3 | [3]; CDK2/CycA2 | [3]; CDK2/CycD1 | [3]; CDK2/CycE1 | [4] | [5]; CDK9/CycK | [5]; CDK9/CycT1 | [6]; CDK3/CycC | [6]; CDK3/CycE1 | [7]; CDK6/CycD1 | [7]; CDK6/CycD2 | [7]; CDK6/CycD3 | [8] | [9] | [10]; CDK20/CycH | [10]; CDK20/CycT1 | [11] | [12]
